From patent publication US11498919B2, “Azaindolylpyridone and diazaindolylpyridone compounds” (Sprint Bioscience AB, priority 2017, dated 2022)

What was measured:
[1] = target: Vps34 enzyme (Homo sapiens (Human), UniProt Q8NEB9); assay: Vps34 Biochemical Assay (Adapta kinase assay, TR-FRET); settings: 20 μM ATP and 200 μM PI:PS in substrate mix, 1 h at room temperature, read-out: Median IC50 nM Adapta
Experimental: Dilution series of compounds of the invention were prepared in DMSO at 100 times the final assay concentration (n1=n0/3 in 10 points). The compounds were further diluted to 4 times the assay concentration in assay buffer (Life technologies buffer Q, PV5125, diluted 5 times supplemented with 2 mM DTT and 2 mM MnCl2). 2.5 μl of the diluted compounds were added to a 384 well assay plate followed by 2.5 μl of 16.5 nM Vps34 enzyme (Life technologies, PV5126). Enzyme and compounds were pre-incubated at rt for 15 min. Then 5 μl of substrate mix containing 20 μM ATP (Life technologies, PV3227) and 200 μM PI:PS substrate (Life technologies, PV5122) in assay buffer was added to the wells containing compound and enzyme. Mixing was performed by pipetting several times. The reaction was incubated at room temperature for 1 h. Then 5 μl stop-detection mix, prepared as described in the Adapta kinase assay kit instructions (Life technologies, PV5099) containing Adapta Eu-anti-ADP antibody (2.3 nM), Alexa Fluor 647 ADP tracer (9 nM) and EDTA (30 mM) in TR-FRET buffer, was added to quench the reaction. Mixing was performed by pipetting several times. The assay plate was then incubated at room temperature for 30 min and read with Artemis micro plate reader. Percent inhibition of the compounds as compared to DMSO treated control samples was calculated. By the use of Dotmatics software compound concentration versus percent inhibition was fitted to generate IC50 values.

[2] = test system: Human osteosarcoma cells (HOS) stably expressing GFP-LC3; assay: High Content Screening Autophagy Assay (GFP-LC3 foci); type: cell-based; settings: autophagy in HOS cells, activated with KU-0063794 500 nM plus Bafilomycin A1 5 nM, 6 hours, LC3-GFP foci area per cell, read-out: Median IC50 (nM) Cellular assay
Experimental: Human osteosarcoma cells (HOS) stably expressing a Green Fluorescent Protein (GFP) tagged LC3 (GFP-LC3) were used to determine the inhibitory effect on autophagy of proprietary compounds. For that purpose, autophagy was activated by using the mTOR inhibitor KU-0063794 at 500 nM in the presence of Bafilomycin A1 (Sigma-Aldrich) at 5 nM. Shortly, cells were plated overnight in clear bottom 96-well plates in DMEM—High Modified media (Hi-Clone Cat #SH30285.01). At the start of the experiment, the media was removed and replaced with fresh media containing the mTOR inhibitor, Bafilomycin A1 and the vehicle or a test compound as indicated. After 6 hours the media was removed, cells were washed twice with ice-cold phosphate buffered saline (PBS) and fixed with 4% paraformaldehyde for 20 minutes at room temperature. Then the cells were washed twice with ice-cold PBS before adding Hoechst 33342 at 1 μg/ml in PBS for nuclear staining. After incubation overnight at 4° C., cells were washed once with PBS to remove the excess of dye and 100 μl of PBS was added to each well. Images were acquired at 20× magnification, 6 images per well, using the ImageXpress automated microscope (Molecular Devices Inc.) and analyzed with MetaXpress software to identify LC3-GFP foci. Foci area per cell values were used to generate dose response curves and IC50 values were calculated using the non-linear fitting analysis in GraphPad Prism software. […] The results of the assay are shown in Table 2 (Median IC50 nM HOS-LC3).

Sequence of Vps34 enzyme (Q8NEB9 whole entry): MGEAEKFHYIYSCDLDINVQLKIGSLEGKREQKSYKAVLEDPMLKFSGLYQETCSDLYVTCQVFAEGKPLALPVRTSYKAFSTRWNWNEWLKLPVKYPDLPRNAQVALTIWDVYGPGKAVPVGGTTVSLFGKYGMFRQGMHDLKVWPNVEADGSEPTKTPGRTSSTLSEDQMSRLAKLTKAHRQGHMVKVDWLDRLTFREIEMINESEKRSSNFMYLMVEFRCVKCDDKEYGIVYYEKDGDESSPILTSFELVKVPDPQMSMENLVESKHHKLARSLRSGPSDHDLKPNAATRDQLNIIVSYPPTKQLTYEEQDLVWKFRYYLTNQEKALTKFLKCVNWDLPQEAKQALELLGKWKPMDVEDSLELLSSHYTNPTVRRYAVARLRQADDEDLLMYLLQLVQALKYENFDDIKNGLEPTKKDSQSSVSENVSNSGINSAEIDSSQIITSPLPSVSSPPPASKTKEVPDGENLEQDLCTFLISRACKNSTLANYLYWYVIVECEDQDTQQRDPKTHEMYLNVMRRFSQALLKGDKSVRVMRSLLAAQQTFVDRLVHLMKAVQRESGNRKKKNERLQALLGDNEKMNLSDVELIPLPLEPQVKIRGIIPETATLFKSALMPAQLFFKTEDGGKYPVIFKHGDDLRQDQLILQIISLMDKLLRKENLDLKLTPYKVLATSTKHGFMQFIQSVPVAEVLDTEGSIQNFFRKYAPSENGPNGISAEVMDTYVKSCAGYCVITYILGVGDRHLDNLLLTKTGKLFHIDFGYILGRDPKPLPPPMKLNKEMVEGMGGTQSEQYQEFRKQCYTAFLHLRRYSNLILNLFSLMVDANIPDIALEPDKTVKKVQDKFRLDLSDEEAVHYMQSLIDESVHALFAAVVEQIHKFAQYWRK

Structure (SMILES) | IC50 [1] [nM] | IC50 [2] [nM]
O=c1cc(-c2ccnc3[nH]ccc23)cc(-c2ccccc2C(F)(F)F)[nH]1 [Example 4, 4-(1H-pyrrolo[2,3-b]pyridin-4-yl)-6-[2-(trifluoromethyl)phenyl]-1H-pyridin-2-one] | < 5 | 665
Cc1cnccc1-c1cc(-c2ccnc3[nH]ccc23)cc(=O)[nH]1 [Example 6, 6-(3-Methyl-4-pyridyl)-4-(1H-pyrrolo[2,3-b]pyridin-4-yl)-1H-pyridin-2-one] | 20 | 2570
O=c1cc(-c2ccnc3[nH]ccc23)cc(N2CCCC2c2ccccc2)[nH]1 (stereo not shown) [Example 8, 6-(2-phenylpyrrolidin-1-yl)-4-(1H-pyrrolo[2,3-b]pyridin-4-yl)-1H-pyridin-2-one] | 10 | 366
Cc1cc2c(-c3cc(-c4cccnc4)[nH]c(=O)c3)ccnc2[nH]1 [Example 12, 4-(2-Methyl-1H-pyrrolo[2,3-b]pyridin-4-yl)-6-(3-pyridyl)-1H-pyridin-2-one] | 24 | 554
Cc1cc2c(-c3cc(N4CCOCC4)[nH]c(=O)c3)ccnc2[nH]1 [Example 16, 4-(2-Methyl-1H-pyrrolo[2,3-b]pyridin-4-yl)-6-morpholino-1H-pyridin-2-one] | 12 | –
O=c1cc(-c2ccnc3[nH]c(-c4cnco4)cc23)cc(-c2ccccc2Cl)[nH]1 [Example 23, 6-(2-Chlorophenyl)-4-(2-oxazol-5-yl-1H-pyrrolo[2,3-b]pyridin-4-yl)-1H-pyridin-2-one] | 8 | 44
O=c1cc(-c2ccnc3[nH]c(-c4cccnc4)cc23)cc(-c2ccccc2Cl)[nH]1 [Example 27, 6-(2-Chlorophenyl)-4-[2-(3-pyridyl)-1H-pyrrolo[2,3-b]pyridin-4-yl]-1H-pyridin-2-one] | < 5 | 16
Cc1cc2c(-c3cc(-c4ccccc4Cl)[nH]c(=O)c3)ccnc2[nH]1 [Example 29, 6-(2-Chlorophenyl)-4-(2-methyl-1H-pyrrolo[2,3-b]pyridin-4-yl)-1H-pyridin-2-one] | < 5 | 54
Cc1cc2c(-c3cc(N4CCCCC4C(F)(F)F)[nH]c(=O)c3)ccnc2[nH]1 (stereo not shown) [Example 36, 4-(2-Methyl-1H-pyrrolo[2,3-b]pyridin-4-yl)-6-[2-(trifluoromethyl)-1-piperidyl]-1H-pyridin-2-one] | < 5 | 62
O=c1cc(-c2ccnc3[nH]ccc23)cc(N2CCCCC2C(F)(F)F)[nH]1 (stereo not shown) [Example 37, 4-(1H-pyrrolo[2,3-b]pyridin-4-yl)-6-[2-(trifluoromethyl)-1-piperidyl]-1H-pyridin-2-one] | < 5 | 145
O=c1cc(-c2ccnc3[nH]ccc23)cc(N2CCOCC2C(F)(F)F)[nH]1 (stereo not shown) [Example 42, 4-(1H-pyrrolo[2,3-b]pyridin-4-yl)-6-[3-(trifluoromethyl)morpholin-4-yl]-1H-pyridin-2-one] | < 5 | 473
O=c1cc(-c2ccnc3[nH]c(-c4cccc(C(F)(F)F)c4)cc23)cc(N2CCOCC2C(F)(F)F)[nH]1 (stereo not shown) [Example 45, 6-[3-(Trifluoromethyl)morpholin-4-yl]-4-[2-[3-(trifluoromethyl)phenyl]-1H-pyrrolo[2,3-b]pyridin-4-yl]-1H-pyridin-2-one] | 34 | –
Cc1ccc(-c2cc3c(-c4cc(N5CCOCC5C(F)(F)F)[nH]c(=O)c4)ccnc3[nH]2)s1 (stereo not shown) [Example 48, 4-[2-(5-Methyl-2-thienyl)-1H-pyrrolo[2,3-b]pyridin-4-yl]-6-[3-(trifluoromethyl)morpholin-4-yl]-1H-pyridin-2-one] | < 5 | –
O=c1cc(-c2ccnc3[nH]ncc23)cc(N2CCCCC2C(F)(F)F)[nH]1 (stereo not shown) [Example 49, 4-(1H-pyrazolo[3,4-b]pyridin-4-yl)-6-[2-(trifluoromethyl)-1-piperidyl]-1H-pyridin-2-one] | < 5 | 62
O=c1cc(-c2ccnc3[nH]c(-c4cnc(C(F)(F)F)nc4)cc23)cc(N2CCCCC2C(F)(F)F)[nH]1 (stereo not shown) [Example 52, 6-[2-(Trifluoromethyl)-1-piperidyl]-4-[2-[2-(trifluoromethyl)pyrimidin-5-yl]-1H-pyrrolo[2,3-b]pyridin-4-yl]-1H-pyridin-2-one] | < 5 | –
O=c1cc(-c2ccnc3[nH]c(-c4ccc(C(F)(F)F)nc4)cc23)cc(N2CCCCC2C(F)(F)F)[nH]1 (stereo not shown) [Example 55, 6-[2-(Trifluoromethyl)-1-piperidyl]-4-[2-[6-(trifluoromethyl)-3-pyridyl]-1H-pyrrolo[2,3-b]pyridin-4-yl]-1H-pyridin-2-one] | < 5 | –
O=c1cc(-c2ccnc3[nH]c(-c4cncc(C(F)(F)F)c4)cc23)cc(N2CCCCC2C(F)(F)F)[nH]1 (stereo not shown) [Example 58, 6-[2-(Trifluoromethyl)-1-piperidyl]-4-[2-[5-(trifluoromethyl)-3-pyridyl]-1H-pyrrolo[2,3-b]pyridin-4-yl]-1H-pyridin-2-one] | 7 | –
O=c1cc(-c2ccnc3[nH]ccc23)cc(N2CCN(S(=O)(=O)Cc3ccc(F)cc3)CC2C(F)(F)F)[nH]1 (stereo not shown) [Example 65, 6-[4-[(4-fluorophenyl)methylsulfonyl]-2-(trifluoromethyl)piperazin-1-yl]-4-(1H-pyrrolo[2,3-b]pyridin-4-yl)-1H-pyridin-2-one] | < 5 | 176
CCS(=O)(=O)N1CCN(c2cc(-c3ccnc4[nH]ccc34)cc(=O)[nH]2)C(C(F)(F)F)C1 (stereo not shown) [Example 71, 6-[4-Ethylsulfonyl-2-(trifluoromethyl)piperazin-1-yl]-4-(1H-pyrrolo[2,3-b]pyridin-4-yl)-1H-pyridin-2-one] | < 5 | 308
CCS(=O)(=O)N1CCN(c2cc(-c3ccnc4[nH]c(C5CC5)cc34)cc(=O)[nH]2)C(C(F)(F)F)C1 (stereo not shown) [Example 72, 4-(2-Cyclopropyl-1H-pyrrolo[2,3-b]pyridin-4-yl)-6-[4-ethylsulfonyl-2-(trifluoromethyl)piperazin-1-yl]-1H-pyridin-2-one] | < 5 | 19
CCS(=O)(=O)N1CCN(c2cc(-c3ccnc4[nH]c(C)cc34)cc(=O)[nH]2)C(C(F)(F)F)C1 (stereo not shown) [Example 73, 6-[4-Ethylsulfonyl-2-(trifluoromethyl)piperazin-1-yl]-4-(2-methyl-1H-pyrrolo[2,3-b]pyridin-4-yl)-1H-pyridin-2-one] | < 5 | 28
CCS(=O)(=O)N1CCN(c2cc(-c3ccnc4[nH]c(C#N)cc34)cc(=O)[nH]2)C(C(F)(F)F)C1 (stereo not shown) [Example 74, 4-[2-[4-Ethylsulfonyl-2-(trifluoromethyl)piperazin-1-yl]-6-oxo-1H-pyridin-4-yl]-1H-pyrrolo[2,3-b]pyridine-2-carbonitrile] | < 5 | 89
O=c1cc(-c2ccnc3[nH]c(C4CC4)cc23)cc(-c2ccccc2C(F)(F)F)[nH]1 [Example 79, 4-(2-cyclopropyl-1H-pyrrolo[2,3-b]pyridin-4-yl)-6-[2-(trifluoromethyl)phenyl]-1H-pyridin-2-one] | < 5 | –
N#Cc1cc2c(-c3cc(-c4ccccc4C(F)(F)F)[nH]c(=O)c3)ccnc2[nH]1 [Example 80, 4-[2-Oxo-6-[2-(trifluoromethyl)phenyl]-1H-pyridin-4-yl]-1H-pyrrolo[2,3-b]pyridine-2-carbonitrile] | < 5 | –
O=c1cc(-c2ccnc3[nH]ncc23)cc(-c2ccccc2C(F)(F)F)[nH]1 [Example 82, 4-(1H-pyrazolo[3,4-b]pyridin-4-yl)-6-[2-(trifluoromethyl)phenyl]-1H-pyridin-2-one] | < 5 | 485
CS(=O)(=O)N1CCN(c2cc(-c3ccnc4[nH]ncc34)cc(=O)[nH]2)C(C(F)(F)F)C1 (stereo not shown) [Example 88, 6-[4-Methylsulfonyl-2-(trifluoromethyl)piperazin-1-yl]-4-(1H-pyrazolo[3,4-b]pyridin-4-yl)-1H-pyridin-2-one] | < 5 | –
